Patent publication US9913801B2 (YOUR ENERGY SYSTEMS, LLC, priority 2013, dated 2018)
Where two headings read alike, the source gives them in different places.

Columns and labels:
[1] = system: Mycobacterium tuberculosis; settings: at 10 millimolar
[2] = rat liver, cited from earlier work

SMILES | Mycobacterium tuberculosis CFU/ml [1] | removal of toxin ([2]; intravenous) | removal of toxin ([2]; oral)
CC(=O)N[C@@H](CS)C(=O)O [NAC, N-Acetyl Cysteine] | 8,000 CFU/ml | – | –
N[C@@H](CCC(=O)N[C@@H](CS)C(=O)NCC(=O)O)C(=O)O [Plain glutathione, glutathione] | – | 64% | 0%
